# Measured values as given in ChEMBL document CHEMBL4342414, “Activity of 2,6,9-trisubstituted purines as potent PDGFRα kinase inhibitors with antileukaemic activity” (Eur J Med Chem, 2019).
# Active and inactive are the calls of the source. The rule behind the calls is not given here.
# Assays:
# [1] = Cytotoxicity against human CEM cells assessed as growth inhibition after 72 hrs by resazurin dye-based fluorescence analysis; assay type: cell-based; conditions: CEM (CCRF-CEM) cells
# [2] = Selectivity index, ratio of GI50 for human BJ cells to GI50 for FIP1L1-PDGFRA positive human EOL-1 cells after 72 hrs by resazurin dye-based fluorescence analysis
# [3] = biological target: Platelet-derived growth factor receptor alpha (Homo sapiens, UniProt P16234, V561D); assay: biochemical; assay type: cell-based, Sf9
# EOL1 [4] = assay: Cytotoxicity against FIP1L1-PDGFRA positive human EOL-1 cells assessed as growth inhibition after 72 hrs by resazurin dye-based fluorescence analysis; assay type: functional; conditions: EOL1, 72 h
# [5] = Cytotoxicity against human BJ cells assessed as growth inhibition after 72 hrs by resazurin dye-based fluorescence analysis; assay type: cell-based
# K562 = assay: Cytotoxicity against human K562 cells assessed as growth inhibition after 72 hrs by resazurin dye-based fluorescence analysis; assay type: functional; conditions: K562, 72 h
# HCC827 = assay: Cytotoxicity against human HCC827 cells assessed as growth inhibition after 72 hrs by resazurin dye-based fluorescence analysis; assay type: functional; conditions: HCC827, 72 h
# [6] = Chemical stability of compound; assay type: physicochemical
# EOL1 [7] = assay: Induction of cell cycle arrest at G1 phase in human FIP1L1-PDGFRA positive EOL-1 cells at 10 nM after 24 hrs by propidium iodide staining based flow cytometry; assay type: functional
# EOL1 [8] = assay: Induction of apoptosis in human FIP1L1-PDGFRA positive EOL-1 cells assessed as increase in cell accumulation at subG1 phase at >=10 nM after 24 hrs by propidium iodide staining based flow cytometry relative to control; assay type: functional
# Platelet-derived growth factor receptor alpha, sequence (P16234 24-1089 V561D limits assumed): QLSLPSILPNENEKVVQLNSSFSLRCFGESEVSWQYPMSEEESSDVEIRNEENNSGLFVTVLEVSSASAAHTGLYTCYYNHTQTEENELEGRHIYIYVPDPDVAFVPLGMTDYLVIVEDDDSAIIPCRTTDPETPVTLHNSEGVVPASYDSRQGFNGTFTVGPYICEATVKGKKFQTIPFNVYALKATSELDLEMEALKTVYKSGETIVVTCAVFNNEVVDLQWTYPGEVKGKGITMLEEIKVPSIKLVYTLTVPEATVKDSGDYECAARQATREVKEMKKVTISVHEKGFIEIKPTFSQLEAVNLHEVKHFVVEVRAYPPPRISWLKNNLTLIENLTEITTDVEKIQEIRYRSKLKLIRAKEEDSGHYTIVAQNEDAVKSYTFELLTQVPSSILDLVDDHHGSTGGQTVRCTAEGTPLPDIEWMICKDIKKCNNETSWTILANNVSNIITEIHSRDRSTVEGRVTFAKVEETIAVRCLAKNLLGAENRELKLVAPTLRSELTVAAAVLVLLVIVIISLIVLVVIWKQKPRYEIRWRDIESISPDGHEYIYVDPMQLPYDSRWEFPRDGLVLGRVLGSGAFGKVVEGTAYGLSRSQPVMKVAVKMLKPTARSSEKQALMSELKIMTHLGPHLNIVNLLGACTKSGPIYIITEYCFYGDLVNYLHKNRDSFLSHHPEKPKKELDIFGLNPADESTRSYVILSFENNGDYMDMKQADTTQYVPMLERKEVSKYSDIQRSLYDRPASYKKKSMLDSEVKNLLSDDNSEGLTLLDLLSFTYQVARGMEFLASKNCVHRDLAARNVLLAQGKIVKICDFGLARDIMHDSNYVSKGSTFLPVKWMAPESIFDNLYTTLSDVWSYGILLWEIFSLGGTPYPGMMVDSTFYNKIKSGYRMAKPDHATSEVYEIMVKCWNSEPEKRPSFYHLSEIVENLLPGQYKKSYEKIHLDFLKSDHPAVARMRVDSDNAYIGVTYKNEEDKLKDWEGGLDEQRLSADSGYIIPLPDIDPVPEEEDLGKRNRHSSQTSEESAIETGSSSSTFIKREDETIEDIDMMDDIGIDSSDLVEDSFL
Compound,GI50 at 72 h [1],RatioGI50 [2],IC50 [3],GI50 (EOL1 [4]),GI50 at 72 h [5],GI50 (K562),GI50 (HCC827),Stability [6],Activity (EOL1 [7]),Activity (EOL1 [8])
NCCCCNc1nc(Nc2ccccc2CN2CCOCC2)c2ncn(C3CCCC3)c2n1,25700 nM,6,> 20000 nM,6410 nM,37500 nM,12200 nM,26300 nM,–,–,–
N[C@H]1CC[C@H](Nc2nc(Nc3ccccc3CN3CCOCC3)c3ncn(CCCO)c3n2)CC1,> 40000 nM,>4,> 20000 nM,10600 nM,> 40000 nM,> 40000 nM,> 40000 nM,–,–,–
N[C@H]1CC[C@H](Nc2nc(Nc3ccc(-n4cccn4)cc3)c3ncn(C4CCCC4)c3n2)CC1,933 nM,–,–,8 nM,10400 nM,982 nM,847 nM,Unstable,–,–
N[C@H]1CC[C@H](Nc2nc(Nc3ccc(CN4CCOCC4)cc3)c3ncn(C4CCCC4)c3n2)CC1,820 nM,–,–,7 nM,12300 nM,1120 nM,1010 nM,–,Active,Active
N[C@H]1CC[C@H](Nc2nc(Nc3cccc(CN4CCOCC4)c3)c3ncn(C4CCCC4)c3n2)CC1,1360 nM,–,–,12 nM,14700 nM,1280 nM,1180 nM,–,–,–
N[C@H]1CC[C@H](Nc2nc(Nc3ccccc3CN3CCOCC3)c3ncn(C4CCCC4)c3n2)CC1,18100 nM,7,> 20000 nM,4520 nM,30400 nM,4100 nM,22200 nM,–,–,–
CC(C)(C)c1cc(NC(=O)Nc2ccc(-c3cn4c(n3)sc3cc(OCCN5CCOCC5)ccc34)cc2)no1 [QUIZARTINIB],> 40000 nM,–,–,< 0.5 nM,> 40000 nM,> 40000 nM,> 40000 nM,–,–,–
OCCCNc1nc(Nc2ccc(Oc3nccs3)cc2)c2ncn(C3CCCC3)c2n1,23000 nM,–,–,442 nM,34100 nM,11300 nM,6490 nM,–,–,–
N[C@H]1CC[C@H](Nc2nc(Nc3ccc(Oc4ncccn4)cc3)c3ncn(C4CCCC4)c3n2)CC1,1150 nM,–,–,20 nM,16900 nM,2270 nM,2720 nM,–,–,–
N[C@H]1CC[C@H](Nc2nc(Nc3ccc(N4CCN(Cc5ccccc5)CC4)cc3)c3ncn(CCCO)c3n2)CC1,4560 nM,–,–,58 nM,16500 nM,2670 nM,2380 nM,–,–,–
Cc1ccc(NC(=O)c2ccc(CN3CCN(C)CC3)cc2)cc1Nc1nccc(-c2cccnc2)n1 [IMATINIB],35800 nM,>80000,–,< 0.5 nM,> 40000 nM,730 nM,> 40000 nM,–,–,–
N[C@H]1CC[C@H](Nc2nc(Nc3ccc(-c4ccccc4O)cc3)c3ncn(C4CCCC4)c3n2)CC1,1490 nM,–,–,53 nM,9590 nM,2080 nM,2530 nM,–,–,–
N[C@H]1CC[C@H](Nc2nc(Nc3ccc(-c4ccoc4)nc3)c3ncn(C4CCCC4)c3n2)CC1,619 nM,–,–,17 nM,13100 nM,876 nM,632 nM,–,–,–
NCCCCNc1nc(Nc2ccc(CN3CCOCC3)cc2)c2ncn(CCCO)c2n1,8200 nM,–,–,138 nM,35000 nM,9360 nM,19000 nM,–,–,–
N[C@H]1CC[C@H](Nc2nc(Nc3ccc(-n4cncn4)cc3)c3ncn(C4CCCC4)c3n2)CC1,871 nM,–,–,8 nM,14700 nM,1560 nM,1420 nM,–,–,–
COc1ccccc1-c1ccc(Nc2nc(N[C@H]3CC[C@H](N)CC3)nc3c2ncn3C2CCCC2)cc1,2350 nM,–,–,117 nM,22800 nM,2320 nM,2300 nM,–,–,–
N[C@H]1CC[C@H](Nc2nc(Nc3ccc(CN4CCOCC4)cc3)c3ncn(CCCO)c3n2)CC1,34500 nM,–,–,164 nM,> 40000 nM,9920 nM,18400 nM,–,–,–
OCCCCNc1nc(Nc2ccc(N3CCN(Cc4ccccc4)CC3)cc2)c2ncn(CCCO)c2n1,27900 nM,–,–,1010 nM,> 40000 nM,8670 nM,9800 nM,–,–,–
N[C@H]1CC[C@H](Nc2nc(Nc3ccc(N4CCN(Cc5ccccc5)CC4)cc3)c3ncn(C4CCC(O)C4)c3n2)CC1 (stereo partly specified),540 nM,–,–,11 nM,16900 nM,652 nM,840 nM,–,–,–
NCCCCNc1nc(Nc2ccc(N3CCN(Cc4ccccc4)CC3)cc2)c2ncn(CCCO)c2n1,7570 nM,–,–,158 nM,28500 nM,2570 nM,6700 nM,–,–,–
NCCCCNc1nc(Nc2ccc(CN3CCOCC3)cc2)c2ncn(C3CCC(O)C3)c2n1 (stereo unspecified),5510 nM,–,–,36 nM,4900 nM,2230 nM,3240 nM,–,–,–
NCCCCNc1nc(Nc2ccc(N3CCN(Cc4ccccc4)CC3)cc2)c2ncn(C3CCC(O)C3)c2n1 (stereo unspecified),3670 nM,–,–,46 nM,13200 nM,1630 nM,2290 nM,–,–,–
c1csc(Oc2ccc(Nc3nc(N4CCOCC4)nc4c3ncn4C3CCCC3)cc2)n1,> 40000 nM,–,–,347 nM,> 40000 nM,> 40000 nM,15400 nM,–,–,–
Nc1ccccc1-c1ccc(Nc2nc(N[C@H]3CC[C@H](N)CC3)nc3c2ncn3C2CCCC2)cc1,677 nM,–,–,18 nM,12500 nM,1070 nM,810 nM,–,–,–
N[C@H]1CC[C@H](Nc2nc(Nc3ccc(-n4cnnc4)cc3)c3ncn(C4CCCC4)c3n2)CC1,671 nM,–,–,5 nM,12800 nM,1120 nM,865 nM,Unstable,–,–
N[C@H]1CC[C@H](Nc2nc(Nc3ccc(-c4ccccc4O)nc3)c3ncn(C4CCCC4)c3n2)CC1,617 nM,–,–,85 nM,6350 nM,500 nM,653 nM,–,–,–
